These results are taken from publication PMC11111691, “Cystine-knot peptide inhibitors of HTRA1 bind to a cryptic pocket within the active site region” (Nature Communications, 2024).

For assay [1], the target named is T1, HTRA1^FL (Homo sapiens, UniProt Q92743).
T1 construct: Human full-length HTRA1 (HTRA1^FL, Q23-P480); made in house; host or cells: Trichoplusia ni cells
In words: HTRA1^FL enzyme inhibition assay with synthetic substrate H2-OPT. In kind it is biochemical. How it is done:
(§1) Assays with the fluorescence-quenched synthetic substrate Mca-IRRVSYSFK(Dnp)K (H2-OPT)[38],[60] were carried out essentially as described. CKP stock solutions in DMSO were diluted in TNC buffer (dilution series for IC50 determinations, or final concentration of 2 µM for selectivity assay or as indicated for HTRA1/4 mutants) and incubated with enzymes in 96-well black optical bottom plates for 60 min at 37 °C. For selectivity experiments we used the 7mer-ABP as inhibitor, which was incubated with the proteases for 15 min at 37 °C. A 10 mM stock solution of H2-OPT in DMSO was diluted with water, prewarmed at 37 °C and then added to the CKP-enzyme mixtures. The final concentrations in the reaction mixtures were: 1 nM HTRA1^FL, 3 nM HTRA1^PD/PDZ, 1 nM HTRA1^PD, 1 nM HTRA2^PD/PDZ, 3 nM HTRA3^FL, 60 nM HTRA3^PD/PDZ, 6 nM HTRA4^FL, 1 µM HTRA4^PD/PDZ, 1 nM mouse HTRA1^PD, 25 nM HTRA1^PD-A202Y, 1 µM HTRA4^PD/PDZ-Y200A, 0.5 mM 7mer-ABP, 5 µM H2-OPT, and 0.25% DMSO. The kinetics of substrate cleavage was measured at 37 °C on a SpectraMax M5 microplate reader with excitation of 328 nm and emission of 393 nm. The determined initial rates of cleavage were expressed as percent of control (DMSO control) after subtracting the baseline rates (without enzyme). IC50 values were determined by Sigmoidal 4PL modeling of multiple data points from serial dilutions of CKPs using Prism 9 software (GraphPad). For selectivity assays with HTRA1-4^PD/PDZ constructs, the specific activities of the enzymes and enzyme:CKP inhibitor ratios were as follows: HTRA1^PD/PDZ, 12560 mRFU/min/nM – 1:667; HTRA2^PD/PDZ, 32300 mRFU/min/nM – 1:2000; HTRA3^PD/PDZ, 962 mRFU/min/nM – 1:33; HTRA4^PD/PDZ, 18 mRFU/min/nM – 1:2.

Assay [2] addresses T2, HTRA1^PD(SA) (Homo sapiens, UniProt Q92743, S328A).
T2 construct: The protease domains of human HTRA1 (HTRA1^PD; D161-K379); made in house; host or cells: E. coli
Nature of the assay: SPR binding kinetics to HTRA1^PD(SA). The settings on record: mean ± S.D. of three or more independent experiments. How it is done: Surface plasmon resonance (SPR) experiments were performed using a Biacore S200 instrument at 25 °C. His-tagged HTRA proteins were captured on a CM5 sensor chip using the His-capture kit (GE Healthcare). Protein concentrations used for immobilization were as follows; HTRA1^PD(SA), HTRA1^PD and HTRA1^PD-ABP 2 µg/ml with 60-s injections at 10 µl/min, HTRA2^PD/PDZ, HTRA3^PD/PDZ, and HTRA4^PD/PDZ 4 µg/ml with 60-s injections at 10 µl/min. Approximate immobilization levels of HTRA proteins were as follows; HTRA1^PD(SA) 700 RU, HTRA1^PD 900 RU, HTRA1^PD-ABP 900 RU, HTRA2^PD/PDZ 500 RU, HTRA3^PD/PDZ 500 RU, HTRA4^PD/PDZ 500 RU. All CKPs were prepared in HBS-EP buffer (0.01 M HEPES pH 7.4, 0.15 M NaCl, 3 mM EDTA, 0.005% v/v Surfactant P20). All CKP concentrations were injected for 120 s at a flow rate of 30 μl/min. A reference channel was subtracted from the HTRA-captured channel.
Binding kinetics of peptides to HTRA1^PD(SA) were determined by flowing six serial three-fold dilutions of peptide over the HTRA1^PD(SA) immobilized surface using a single cycle kinetics model. CKP maximum concentrations were as follows: 1A7, 1A8, 1C10, 2D5, and 3A7, 300 nM; 1G10-ENI and 1D3-ENI, 100 nM; 3B3, 3000 nM; and CPI, 10,000 nM. Data were analyzed using GE BIA evaluation software using a 1:1 Langmuir binding model. The KD values, calculated from the determined kon and koff values, were the mean ± S.D. of 3–4 independent experiments.

Assay [3] deals with T3, HTRA4^PD/PDZ, HTRA4^FL (Homo sapiens, UniProt P83105).
T3 construct: purchased Abcam (FL form); the PD/PDZ form was made in house in E. coli ab134444
T3 sequence (P83105 32-476): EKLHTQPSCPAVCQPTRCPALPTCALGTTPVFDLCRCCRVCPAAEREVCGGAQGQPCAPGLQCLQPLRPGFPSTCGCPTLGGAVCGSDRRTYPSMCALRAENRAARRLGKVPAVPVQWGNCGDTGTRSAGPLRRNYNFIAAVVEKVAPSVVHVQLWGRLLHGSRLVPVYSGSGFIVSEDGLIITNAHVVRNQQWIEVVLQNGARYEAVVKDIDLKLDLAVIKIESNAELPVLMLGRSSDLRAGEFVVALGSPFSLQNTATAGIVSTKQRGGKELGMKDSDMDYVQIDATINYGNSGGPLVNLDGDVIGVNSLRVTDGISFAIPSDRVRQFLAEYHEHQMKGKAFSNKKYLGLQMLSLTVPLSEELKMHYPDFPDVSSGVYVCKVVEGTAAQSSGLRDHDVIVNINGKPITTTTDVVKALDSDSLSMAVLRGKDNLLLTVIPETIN
In words: H2-OPT selectivity assay, HTRA4. The assay is classed as biochemical. The settings on record: 6 nM HTRA4^FL, 2 µM CKP; p<0.001 vs DMSO. As to the method:
as §1

Setting [4] is: SPR Biacore S200, 25 °C, single cycle kinetics, 1:1 Langmuir model.
Where [5] appears, read: SPR, calculated from kon and koff, CPI up to 10 µM.

Positions of bridges follow the written chain, without caps; N, C: chain ends. Non-standard residues stand in square brackets, D forms with d. Residues, ends and D or L forms follow the SMILES beside them. Tyr(3-Cl) = N[C@@H](Cc1ccc(O)c(Cl)c1)C(=O)O

T1 sequence (Q92743 23-480): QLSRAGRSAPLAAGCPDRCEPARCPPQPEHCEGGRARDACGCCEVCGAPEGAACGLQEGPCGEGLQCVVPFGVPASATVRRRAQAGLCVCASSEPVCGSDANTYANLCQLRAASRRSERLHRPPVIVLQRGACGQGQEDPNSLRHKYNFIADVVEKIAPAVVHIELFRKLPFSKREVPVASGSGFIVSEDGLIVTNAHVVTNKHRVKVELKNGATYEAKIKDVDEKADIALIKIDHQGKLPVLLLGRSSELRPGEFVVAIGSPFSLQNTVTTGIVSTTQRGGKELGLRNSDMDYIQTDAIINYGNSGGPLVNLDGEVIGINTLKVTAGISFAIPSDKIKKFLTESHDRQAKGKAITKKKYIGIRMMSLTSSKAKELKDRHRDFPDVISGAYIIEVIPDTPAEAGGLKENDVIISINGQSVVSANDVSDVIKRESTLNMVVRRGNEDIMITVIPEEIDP
T2 sequence (Q92743 161-379 S328A): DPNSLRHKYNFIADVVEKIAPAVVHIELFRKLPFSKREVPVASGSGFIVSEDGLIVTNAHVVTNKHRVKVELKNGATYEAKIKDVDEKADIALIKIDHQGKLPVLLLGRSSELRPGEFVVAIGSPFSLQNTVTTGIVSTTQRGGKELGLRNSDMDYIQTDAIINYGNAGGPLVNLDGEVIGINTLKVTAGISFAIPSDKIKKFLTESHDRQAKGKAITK

In turn, `CC[C@H](C)[C@H](NC(=O)[C@H](CCC(N)=O)NC(=O)[C@H](CCCNC(=N)N)NC(=O)[C@H](CC(C)C)NC(=O)CNC(=O)[C@H](Cc1c[nH]c2ccccc12)NC(=O)CNC(=O)[C@@H]1CSSC[C@@H]2NC(=O)[C@H](CC(=O)O)NC(=O)[C@H](CC(=O)O)NC(=O)[C@H](Cc3c[nH]cn3)NC(=O)[C@H]([C@@H](C)O)NC(=O)[C@H](CCCCN)NC(=O)[C@@H]3CSSC[C@H](NC(=O)[C@H]([C@@H](C)O)NC(=O)[C@H](CCC(N)=O)NC(=O)[C@H](CSSC[C@H](NC(=O)[C@@H](NC(=O)[C@@H]4CCCN4C(=O)[C@H](CC(=O)O)NC(=O)[C@H](C)NC(=O)[C@@H](N)Cc4c[nH]cn4)[C@@H](C)CC)C(=O)N[C@@H](CC(N)=O)C(=O)N[C@@H](CCCCN)C(=O)N4CCC[C@H]4C(=O)N3)NC(=O)[C@H](Cc3ccccc3)NC(=O)[C@H](Cc3c[nH]c4ccccc34)NC(=O)[C@H](C)NC(=O)CNC(=O)[C@H](CO)NC2=O)C(=O)N[C@@H](Cc2ccc(O)c(Cl)c2)C(=O)N[C@@H](Cc2ccc(O)cc2)C(=O)N[C@@H](C)C(=O)N[C@@H]([C@@H](C)O)C(=O)N[C@@H](Cc2c[nH]c3ccccc23)C(=O)N[C@@H](CO)C(=O)N1)C(=O)N[C@@H](CC(=O)O)C(N)=O` [1A8.Y26Y(3Cl)] (H-HADPICNKPCKTHDDCSGAWFCQTC[Tyr(3-Cl)]YATWSCGWGLRQID-NH2; disulfide 6-22, 10-25, 16-32) gave an IC50 in assay [1] of 2.4 ± 0.3 nM.

The compound `CC[C@H](C)[C@H](NC(=O)[C@H](CCC(N)=O)NC(=O)[C@H](CCCNC(=N)N)NC(=O)[C@H](CC(C)C)NC(=O)CNC(=O)[C@H](Cc1c[nH]c2ccccc12)NC(=O)CNC(=O)[C@@H]1CSSC[C@@H]2NC(=O)[C@H](CC(=O)O)NC(=O)[C@H](CC(=O)O)NC(=O)[C@H](Cc3c[nH]cn3)NC(=O)[C@H]([C@@H](C)O)NC(=O)[C@H](CCCCN)NC(=O)[C@@H]3CSSC[C@H](NC(=O)[C@H]([C@@H](C)O)NC(=O)[C@H](CCC(N)=O)NC(=O)[C@H](CSSC[C@H](NC(=O)[C@@H](NC(=O)[C@@H]4CCCN4C(=O)[C@H](CC(=O)O)NC(=O)[C@H](C)NC(=O)[C@@H](N)Cc4c[nH]cn4)[C@@H](C)CC)C(=O)N[C@@H](CC(N)=O)C(=O)N[C@@H](CCCCN)C(=O)N4CCC[C@H]4C(=O)N3)NC(=O)[C@H](Cc3ccccc3)NC(=O)[C@H](Cc3c[nH]c4ccccc34)NC(=O)[C@H](C)NC(=O)CNC(=O)[C@H](CO)NC2=O)C(=O)N[C@@H](Cc2ccc(O)cc2)C(=O)N[C@@H](Cc2ccc(O)cc2)C(=O)N[C@@H](C)C(=O)N[C@@H]([C@@H](C)O)C(=O)N[C@@H](Cc2c[nH]c3ccccc23)C(=O)N[C@@H](CO)C(=O)N1)C(=O)N[C@@H](CC(=O)O)C(N)=O` [1A8] (H-HADPICNKPCKTHDDCSGAWFCQTCYYATWSCGWGLRQID-NH2; disulfide 6-22, 10-25, 16-32) yielded a 50% inhibitory concentration (IC50) in assay [1] of 1.9 ± 0.15 nM. In addition, in assay [2] (setting [4]), the koff was determined as 0.5 ± 0.1 s-1 x10-4 and the kon was 8.2 ± 3.5 M-1 s-1 x104. The Kd in assay [2] (setting [5]) is 0.66 ± 0.42 nM. Further, the “Reduction of HTRA4^FL activity, H2-OPT” value in assay [3] came to 13%.

For the compound `CC[C@H](C)[C@H](NC(=O)[C@@H]1CCCN1C(=O)[C@H](CC(=O)O)NC(=O)[C@H](C)NC(=O)[C@@H](N)Cc1c[nH]cn1)C(=O)N[C@H]1CSSC[C@@H]2NC(=O)[C@H](Cc3ccccc3)NC(=O)[C@H](Cc3c[nH]c4ccccc34)NC(=O)[C@H](C)NC(=O)CNC(=O)[C@H](CO)NC(=O)[C@@H]3CSSC[C@@H](C(=O)NCC(=O)N4CCC[C@H]4C(=O)N[C@@H](Cc4ccc(O)cc4)C(=O)N[C@H](C(=O)NCC(N)=O)C(C)C)NC(=O)[C@H]([C@@H](C)O)NC(=O)[C@H](CCCNC(=N)N)NC(=O)[C@H](C)NC(=O)[C@H](CO)NC(=O)[C@H](CC(N)=O)NC(=O)[C@H](Cc4c[nH]c5ccccc45)NC(=O)[C@H](CSSC[C@H](NC(=O)[C@@H]4CCCN4C(=O)[C@H](CCCCN)NC(=O)[C@H](CC(N)=O)NC1=O)C(=O)N[C@@H](CCCCN)C(=O)N[C@@H]([C@@H](C)O)C(=O)N[C@@H](Cc1c[nH]cn1)C(=O)N[C@@H](CC(=O)O)C(=O)N[C@@H](CC(=O)O)C(=O)N3)NC(=O)[C@H](C)NC(=O)[C@H](CCC(N)=O)NC2=O` [CPI, reference compound] (H-HADPICNKPCKTHDDCSGAWFCQACWNSARTCGPYVG-NH2; disulfide 6-22, 10-25, 16-32), the “Inhibition of HTRA1^FL activity (inhibition curves)” value in assay [1] (H2-OPT substrate, Fig. 1b) was “no activity”. For the same compound, the KD result in assay [2] (setting [5]) is on record as “No binding”.

The compound `CC[C@H](C)[C@H](NC(=O)[C@H](CCC(N)=O)NC(=O)[C@H](CCCNC(=N)N)NC(=O)[C@H](CC(C)C)NC(=O)CNC(=O)[C@H](Cc1c[nH]c2ccccc12)NC(=O)CNC(=O)[C@@H]1CSSC[C@@H]2NC(=O)[C@H](CC(=O)O)NC(=O)[C@H](CC(=O)O)NC(=O)[C@H](Cc3c[nH]cn3)NC(=O)[C@H]([C@@H](C)O)NC(=O)[C@H](CCCCN)NC(=O)[C@@H]3CSSC[C@H](NC(=O)[C@H]([C@@H](C)O)NC(=O)[C@H](CCC(N)=O)NC(=O)[C@H](CSSC[C@H](NC(=O)[C@@H](NC(=O)[C@@H]4CCCN4C(=O)[C@H](CC(=O)O)NC(=O)[C@H](C)NC(=O)[C@@H](N)Cc4c[nH]cn4)[C@@H](C)CC)C(=O)N[C@@H](CC(N)=O)C(=O)N[C@@H](CCCCN)C(=O)N4CCC[C@H]4C(=O)N3)NC(=O)[C@H](Cc3ccccc3)NC(=O)[C@H](Cc3c[nH]c4ccccc34)NC(=O)[C@H](C)NC(=O)CNC(=O)[C@H](CO)NC2=O)C(=O)N[C@@H](Cc2ccc(O)cc2)C(=O)N[C@@H](CC(C)C)C(=O)N[C@@H](C)C(=O)N[C@@H]([C@@H](C)O)C(=O)N[C@@H](Cc2c[nH]c3ccccc23)C(=O)N[C@@H](CO)C(=O)N1)C(=O)N[C@@H](CC(=O)O)C(N)=O` [Y27L] (H-HADPICNKPCKTHDDCSGAWFCQTCYLATWSCGWGLRQID-NH2; disulfide 6-22, 10-25, 16-32) came in with an IC50 in assay [1] of 49.9 ± 3.8 nM.
